Test results as given in US20250163062A1, “WNT PATHWAY INHIBITOR COMPOUNDS” (ADLAI NORTYE BIOPHARMA CO., LTD., priority 2022, published 2025).
Where two headings read alike, the source gives them in different places.

Tests used:
Assay type in all cases: cell-based
[1] = system: RKO; assay: Proliferation inhibition test, non-Wnt mutant control cell line RKO; settings: RKO (Wnt pathway not activated, control), 96 h culture, maximum concentration 10 uM, read-out: Antiproliferation IC50 RKO
Description: (§1) The cell lines used in the experiment are Colo205, H929, HepG2, and DU4475, which have sustained activation of the Wnt pathway and whose proliferation is Wnt pathway-dependent. On the other hand, RKO cell line, in which normally the Wnt pathway is not activated and whose proliferation is not Wnt pathway-dependent, was used as a control cell line. This was done to determine whether the inhibitory effect of the compound of the present disclosure on Wnt-dependent proliferation is due to other nonspecific toxicity.
(§2) Colo205, H929, DU4475, HepG2 and RKO cell lines cultured in their respective culture media were treated in the logarithmic growth phase, and the cells were collected and prepared into a uniform cell suspension of known concentration, and then added to a 96-well cell culture plate so that each well contained 1000-4000 cells. Place in a 5% CO2 cell culture incubator and culture at 37° C. for 20-24 h. On the second day, add the completely dissolved, 3-fold gradient dilution compound to each cell culture well to make the final maximum concentration in the cell culture well 10 uM, and continue to culture for 96 h. This test uses Promega's cell activity detection test for detection. The more the cells proliferate, the stronger the final signal intensity. The detection instrument is SpectraMax, full wavelength mode. The wells with only DMSO added were used as positive control wells, and the wells without cells inoculated were used as negative control wells.

[2] = system: Colo205; assay: Proliferation inhibition test, Wnt mutant cell line Colo205; settings: Colo205, 96 h culture with compound, read-out: Antiproliferation IC50 Colo205
Description: as §1, §2

[3] = system: DU4475; assay: Proliferation inhibition test, Wnt mutant cell line DU4475; settings: DU4475, 96 h culture with compound, read-out: Antiproliferation IC50 DU4475
Description: as §1, §2

[4] = system: Colo205-LUC-TCF/LEF reporter gene; assay: Colo205-LUC-TCF/LEF M1 reporter cell line luciferase inhibition; settings: 4 hours incubation, firefly luciferase signal
Experimental: Colo205 cell line (Cell Bank of Chinese Academy of Sciences, Cat #TCHul02) was purchased from the Cell Bank of Chinese Academy of Sciences. After expansion and subculture, during the exponential growth phase, luciferase reporter plasmid (Promega) driven by TCF/LEF transcription factor was transfected by lipo3000 liposome transfection. The plasmid carries a resistance gene for resistance screening. Transfection was carried out in 10 cm culture dishes using conventional complete medium without resistance. After 2 days, the medium with resistance was replaced, and the culture was continued. After that, the medium with resistance was replaced every 2 days, and the suspended cells were discarded. The original medium was centrifuged to remove cells and debris and retained as an adaptive medium. When the cells covered the culture dish, the cells were digested, counted, and passaged in a 96-well plate, so that the average number of cells contained in each well was 1.5/well, and the adaptive medium was used for passage. The rest of the cells were frozen. After passage, culture for 4 hours to allow the cells to adhere to the wall, and then observe the number of cells in each well under a microscope. Wells with only 1 cell per well were labeled as monoclonal wells. Afterwards, normal culture was performed, and the culture medium was replaced every 2 days, and observed. There are wells where the monoclonal cells continue to grow in the early stage, and they are labeled twice, and can be replaced with normal medium with resistance. When a monoclonal well was overgrown with a 96-well plate, it is digested and passaged to a 24-well culture plate. After the 24-well plate is overgrown, it is passaged to a 96-well plate and a 6-well plate. The cells in a 96-well plate are at least 6 wells, of which 3 wells were added with known Wnt inhibitors, and the other 3 wells were not treated. After 24 hours, the cells in the 96-well plate were added with a fluorescence detection reagent to detect the fluorescence intensity. Cell lines with fluorescent expression when not treated and decreased fluorescent light after inhibition were selected and further cultured. The Colo205-LUC-TCF/LEF-M1 cell line is one of the cell lines screened above. Its growth curve, cell shape, and cell growth state are similar to those of the original Colo205 cells, and the ratio of the fluorescent signals of the inhibitor-treated and untreated cells is the largest among all cell lines, and the ratio can reach 4-5 times when inhibited at 4 hours, which was completely suitable for the screening of Wnt inhibitors in the later stage.
The Colo205-LUC-TCF/LEF M1 cell line is a reporter tool cell stably transfected with the pGL4.49-LUC2-TCF/LEF vector. The β-catenin Wnt pathway is continuously activated. After adding the inhibitor, the Wnt pathway is inhibited. The expression of firefly luciferase regulated by the TCF/LEF cis-element decreased, and after adding the detection substrate, the detected light signal decreased accordingly, so as to detect the inhibitory effect of the compound.
To a 96-well cell culture plate, add 100 uL of the compound with a maximum concentration of 20 uM to each well, and make a 3-fold serial dilution of the compound concentration. Then 10,000 colo205 cells stably transfected with the reporter gene and 100 uL medium were inoculated into each well, and corresponding positive and negative control wells were made at the same time. Put the cells in a 5% CO2 incubator and incubate at 37° C. for 4 hours. After 4 hours, remove the culture medium, add 100 μL of reagent (Promega) containing the corresponding firefly luciferase substrate to each well, and measure the activity of luciferase reporter gene. Luminescence intensity was read with SpectraMax in full wavelength mode. […]

[5] = system: HepG2; assay: Proliferation inhibition test, Wnt mutant cell line HepG2; settings: HepG2, 96 h culture with compound, read-out: Antiproliferation IC50 HepG2
Description: as §1, §2

[6] = system: H929; assay: Proliferation inhibition test, Wnt mutant cell line H929; settings: H929, 96 h culture with compound, read-out: Antiproliferation IC50 H929
Description: as §1, §2

| IC50 [2] [nM] | IC50 ([4]; 4 h) [nM] | IC50 [5] [nM] | IC50 [6] [nM] | IC50 ([2]; Homo sapiens, COLO 205, 96 h) [nM] | IC50 ([5]; Homo sapiens, HepG2, 96 h) [nM] | IC50 ([6]; Homo sapiens, NCI-H929, 96 h) [nM] | IC50 [4] [nM] | SMILES | IC50 [1] [nM] | IC50 [3] [nM] | IC50 ([1]; Homo sapiens) [nM] | IC50 ([3]; Homo sapiens, DU-4475, 96 h) [nM] |
| --- | --- | --- | --- | --- | --- | --- | --- | --- | --- | --- | --- | --- |
| 64.3 | 90 | 224 | 309 | – | – | – | – | Cc1nc(C(F)(F)F)ncc1Oc1ccc(CNc2nc3c4c(n2)N(C)[C@@](C)([C@H](C)O)C(=O)N4CCC3)cn1 [Compound 22] | > 10000 | 38.6 | – | – |
| – | 29.9 | – | – | 7.43 | 22.1 | 78.8 | – | [2H]C([2H])([2H])N1c2nc(NCc3ccc(Oc4ccc(C(F)(F)F)nc4F)nc3)nc3c2N(CCC3)C(=O)[C@]1(C)CO [Compound 18, (S)-2-(((6-((2-fluoro-6-(trifluoromethyl)pyridin-3-yl)oxy)pyridin-3-yl)methyl)amino)-5-(hydroxymethyl)-5-methyl-4-(methyl-d3)-4,5,9,10-tetrahydro-6H,8H-pyrido[3,2,1-de]pteridin-6-one] | – | – | > 10000 | 6.72 |
| – | 32 | – | – | 24.2 | 35.1 | 86.9 | – | [2H]C([2H])([2H])N1c2nc(NCc3ccc(Oc4cnc(C(F)(F)F)nc4CC)nc3)nc3c2N(CCC3)C(=O)[C@@H]1CO [Compound 8, (S)-2-(((6-((4-ethyl-2-(trifluoromethyl)pyrimidin-5-yl)oxy)pyridin-3-yl)methyl)amino)-5-(hydroxymethyl)-4-(methyl-d3)-4,5,9,10-tetrahydro-6H,8H-pyrido[3,2,1-de]pteridin-6-one] | – | – | > 10000 | 9.6 |
| – | 43.8 | – | – | 18.9 | 13.6 | 98.8 | – | CN1c2nc(NCc3ccc(Oc4ccc(C(F)(F)F)nc4F)nc3)nc3c2N(CCC3)C(=O)[C@@H]1CO [Compound 26] | – | – | > 10000 | 12.1 |
| – | 69.4 | – | – | 64.5 | 68 | 98 | – | Cc1nc(C(F)(F)F)ncc1Oc1ccc(CNc2nc3c4c(n2)N(C)[C@@H]([C@H](C)O)C(=O)N4CCC3)cn1 [Compound 25] | – | – | > 10000 | 15.9 |
| – | 50.9 | – | – | 20.6 | 33.5 | 160 | – | [2H]C([2H])([2H])N1c2nc(NCc3ccc(Oc4cnc(C(F)(F)F)nc4C)nc3)nc3c2N(CCC3)C(=O)[C@]1(C)CO [Compound 5, (S)-5-(Hydroxymethyl)-5-methyl-4-(methyl-d3)-2-(((6-((4-methyl-2-(trifluoromethyl)pyrimidin-5-yl)oxy)pyridin-3-yl)methyl)amino)-4,5,9,10-tetrahydro-6H,8H-pyrido[3,2,1-de]pteridin-6-one] | – | – | > 10000 | 14.4 |
| – | 48 | – | – | 46.5 | 37 | 5.61 | – | [2H]C([2H])([2H])N1c2nc(NCc3ccc(Oc4cnc(C(F)(F)F)nc4C)nc3)nc3c2N(CCC3)C(=O)[C@@H]1[C@@H](C)O [Compound 24] | – | – | > 10000 | 23.2 |
| 9.05 | – | 109 | – | – | – | 303 | 65.6 | Cc1nc(C(F)(F)F)ncc1Oc1ccc(CNc2nc3c4c(n2)N(C)[C@@](C)([C@H](C)O)C(=O)N4CCC3)cn1 [Compound 6, (S)-5-((S)-1-hydroxyethyl)-4,5-dimethyl-2-(((6-((4-methyl-2-(trifluoromethyl)pyrimidin-5-yl)oxy)pyridin-3-yl)methyl)amino)-4,5,9,10-tetrahydro-6H,8H-pyrido[3,2,1-de]pteridin-6-one] | – | – | > 10000 | 47.4 |
| – | 15.6 | – | – | 4.48 | 2.17 | 20 | – | [2H]C([2H])([2H])N1c2nc(NCc3ccc(Oc4ccc(C(F)(F)F)nc4Cl)nc3)nc3c2N(CCC3)C(=O)[C@]1(C)CO [Compound 3, (S)-2-(((6-((2-chloro-6-(trifluoromethyl)pyridin-3-yl)oxy)pyridin-3-yl)methyl)amino)-5-(hydroxymethyl)-5-methyl-4-(methyl-d3)-4,5,9,10-tetrahydro-6H,8H-pyrido[3,2,1-de]pteridin-6-one] | – | – | > 10000 | 3.06 |
| – | 3.89 | – | – | 2.34 | 3.54 | 18 | – | [2H]C([2H])([2H])N1c2nc(NCc3ccc(Oc4cnc(C(F)(F)F)nc4C4CC4)nc3)nc3c2N(CCC3)C(=O)[C@]1(C)CO [Compound 10, (S)-2-(((6-((4-cyclopropyl-2-(trifluoromethyl)pyrimidin-5-yl)oxy)pyridin-3-yl)methyl)amino)-5-(hydroxymethyl)-5-methyl-4-(methyl-d3)-4,5,9,10-tetrahydro-6H,8H-pyrido[3,2,1-de]pteridin-6-one] | – | – | > 10000 | < 0.5 |
| – | 9.09 | – | – | 6.52 | 12.1 | 31.3 | – | [2H]C([2H])([2H])N1c2nc(NCc3ccc(Oc4ccc(C(F)(F)F)nc4Br)nc3)nc3c2N(CCC3)C(=O)[C@]1(C)CO [Compound 12, (S)-2-(((6-((2-bromo-6-(trifluoromethyl)pyridin-3-yl)oxy)pyridin-3-yl)methyl)amino)-5-(hydroxymethyl)-5-methyl-4-(methyl-d3)-4,5,9,10-tetrahydro-6H,8H-pyrid o[3,2,1-de]pteridin-6-one] | – | – | > 10000 | 0.82 |
| – | 22.5 | – | – | 8.67 | 1.68 | 47.7 | – | CN1c2nc(NCc3ccc(Oc4ccc(C(F)(F)F)nc4Cl)nc3)nc3c2N(CCC3)C(=O)[C@@H]1CO [Compound 2, (S)-2-(((6-((2-chloro-6-(trifluoromethyl)pyridin-3-yl)oxy)pyridin-3-yl)methyl)amino)-5-(hydroxymethyl)-4-methyl-4,5,9,10-tetrahydro-6H,8H-pyrido[3,2,1-de]pteridin-6-one] | – | – | > 10000 | 5.05 |
| – | 30.6 | – | – | 22.8 | 38.3 | 90.2 | – | [2H]C([2H])([2H])N1c2nc(NCc3ccc(Oc4ccc(C(F)(F)F)nc4F)nc3)nc3c2N(CCC3)C(=O)[C@@H]1CO [Compound 27] | – | – | > 10000 | 24.6 |
